Source: patent USRE47245E1, “Pro-angiogenic peptides and uses thereof” (Susavion Biosciences, Inc., priority 2006, dated 2019)
Where no end group is shown, it is not given here.

What was measured:
[1] = system: macrophages in PBMC cultures; assay: Stimulation of phagocytosis: macrophages engulfing microspheres opsonized with anti-HIV antibodies; assay type: cell-based, human; settings: PBMC cultures pretreated; control cultures 0 to 3 beads
Protocol: The activity of the peptides to stimulate phagocytosis was assessed by the ability of macrophages to engulf microspheres opsonized with anti-HIV antibodies. A biotin-tagged peptide epitope of a surface protein of HIV-1 was bound to streptavidin on the surface of the beads. An antibody preparation that was raised against this epitope was then bound to the HIV peptide. The beads were then washed and presented to PBMC cultures pretreated with peptides. Macrophages in cultures not treated with peptides had little, if any, phagocytic activity. In multiple control cultures, the number of beads within a macrophage-like cell ranged from 0 to 3. In the cultures treated with peptide constructs containing four copies of the peptide sequences WNSTL (SEQ ID NO:1), NQHTPR (SEQ ID NO:2), or VQATQS (SEQ ID NO:8), an average of 10 beads were counted in each phagocytic cell, with no substantial difference between peptide constructs.

[2] = system: peripheral blood mononuclear cells (PBMCs); assay: Regulation of cytokine release: cytokine antibody array on medium of PBMC cultures; assay type: cell-based, human; settings: for relative IL-6 concentration: in one experiment, untreated control 98
Protocol: To determine whether the peptides regulate induction or inhibition of release of cytokines, cultured peripheral blood mononuclear cells (PBMCs) were treated with one peptide embodiment of the invention and, after 4 hour incubation, the medium was collected and assayed for changes in the amounts of 40 different cytokines. The peptide construct containing four copies of WNSTL (SEQ ID NO:1), illustrated in FIG. 2A, was added at a concentration of 100 nM in each of the assays. The PBMC cultures were established with cells from Cellular Technology, Ltd. (Shaker Heights, Ohio). Approximately 3 million cells of frozen human PBMCs were thawed at 37° C. and transferred to a 50 mL conical tube where 8 mL of wash medium were added slowly. Then an additional 8 mL were added and swirled to mix. The cells were then centrifuged at 330 g for 10 min, the supernatant was removed and the pellet was resuspended in 10 mL wash medium and centrifuged as above. The washed cells were then resuspended in RPMI 1640 medium containing 10% FBS to about 6 million cells per mL and 100 μL of the suspension were added into each well of a 96-well microtiter plate and incubated overnight at 37° C. in humidified 5% CO2. After 24 hr, the medium was replaced with 200 μL fresh RPMI 1640 medium containing 10% FBS and incubated at 37° C. in humidified 5% CO2 for 2 days. For the data shown in TABLE 1, an aliquot of the peptide construct was added to samples in duplicate at a final concentration of 5 nM or 100 nM and incubated at 37° C. in humidified 5% CO2 for 4 hr. For other experiments (data not included), the incubation was continued for 24 hr. The medium was then removed and stored at […]. The samples were analyzed for production of cytokines. One set of control cells was not treated with an experimental agent. A second set of control cells was treated with LPS, the agent commonly used to induce production of a variety of inflammatory cytokines.
Assays of cytokine levels in samples of culture media were performed using methods developed by RayBiotech, Inc. (Norcross, Ga.). In this technology, membrane arrays of antibodies against cytokines were incubated with samples of media. After washing, the array was incubated with a cocktail of all antibodies tagged with biotin. The membrane was then washed free of unbound antibodies and incubated with streptavidin labeled with a fluorescent dye. After a final wash, the membrane arrays were read in a fluorescence detector and the intensities of the spots quantitated to obtain relative values.
One set of control samples was not treated with peptide and a second set of control samples was treated with lipopolysaccharide (LPS) in the absence of the peptide construct. The structure of the construct is illustrated in FIG. 2A. […] The decrease in IL-8 concentration in the peptide-treated sample, as compared with the amount of IL-8 in the sample treated with the proto-typical inflammatory agent LPS, is particularly notable. […] The increase in the proangiogenic PDGF-BB and the decrease in the inflammatory IL-8, without concomitant stimulation of inflammation, are of particular importance with respect to wound healing. […]

[3] = system: 786-0 human renal cell adenocarcinoma cell line; assay: Pro-angiogenic activity: growth of xenograft tumor in nude mouse; assay type: in vivo, nude mouse (nu/nu); settings: 0.05 nmole/gm subcutaneously on alternate days; tumor weight estimated from volume
Protocol: Tumors require vascularization to obtain nutrients to support growth. Therefore, stimulation of growth of a tumor in response to administration of a construct of this invention is an indication of angiogenesis. For this example, a xenograph model system with the nude mouse (nu/nu) was used to determine the effect of peptide on growth of 786-0 human renal cell adenocarcinoma cell line injected into the flank of a mouse so as to induce a tumor. After the tumor was established, peptide was injected subcutaneously on alternate days. The weight of the tumor was estimated by calculation of the volume.
FIG. 4 illustrates data resulting from assays for pro-angiogenic activity for one embodiment of the invention. […] The peptide was also assayed in combination with Sorafenib, an anti-angiogenic drug.

[4] = PBMCs in serum, 4 hr, construct 100 nM

Substance: VQATQS: construct containing four copies of core sequence VQATQS (also: four copies, branched construct)
- average beads counted in each phagocytic cell [1]: 10 beads
- Relative concentration of Eotaxin-2 [2, 4]: 401
- Relative concentration of I-309 [2, 4]: 101
- Relative concentration of IL-4 [2, 4]: 64
- Relative concentration of IL-6 [2, 4]: 167
- Relative concentration of IL-10 [2, 4]: 67
- Relative concentration of IL-12p40 [2, 4]: 74
- Relative concentration of IL-12p70 [2, 4]: 112
- Relative concentration of IL-15 [2, 4]: 134
- Relative concentration of IL-16 [2, 4]: 10
- Relative concentration of IL-17 [2, 4]: 21
- Relative concentration of IL-21 [2, 4]: 90
- Relative concentration of IP-10 [2, 4]: 334
- Relative concentration of M-CSF [2, 4]: 90
- Relative concentration of MCP-1 [2, 4]: 1,966
- Relative concentration of PDGF-BB [2, 4]: 83
- Relative concentration of TGF-β1 [2, 4]: 83
- Relative concentration of TIMP-2 [2, 4]: 175
- Relative concentration of TNF-α [2, 4]: 98
- Relative concentration of TNF-β [2, 4]: 91
- Relative concentration of sTNF RI [2, 4]: 75
- Relative concentration of sTNF RII [2, 4]: 20

Substance: VSNQH: construct containing four copies of core sequence VSNQH (also: four copies of core sequence, branched construct)
- Relative concentration of Eotaxin [2, 4]: 47
- Relative concentration of Eotaxin-2 [2, 4]: 470
- Relative concentration of GM-CSF [2, 4]: 96
- Relative concentration of ICAM-1 [2, 4]: 70
- Relative concentration of IFN-γ [2, 4]: 170
- Relative concentration of IL-1α [2, 4]: 322
- Relative concentration of IL-12p40 [2, 4]: 52
- Relative concentration of IL-12p70 [2, 4]: 117
- Relative concentration of IL-15 [2, 4]: 137
- Relative concentration of IL-17 [2, 4]: 21
- Relative concentration of IL-21 [2, 4]: 130
- Relative concentration of IP-10 [2, 4]: 377
- Relative concentration of MCP-2 [2, 4]: 97
- Relative concentration of MIG [2, 4]: 94
- Relative concentration of PDGF-BB [2, 4]: 82
- Relative concentration of TIMP-2 [2, 4]: 285
- Relative concentration of TNF-α [2, 4]: 138
- Relative concentration of TNF-β [2, 4]: 93

Substance: WNSTL: branched construct: four copies of core sequence WNSTL, each via GGGS linker on tri-lysine framework, C-terminal amide (also: four copies, each via GGGS linker on tri-lysine framework, C-terminal amide of construct)
- average beads counted in each phagocytic cell [1]: 10 beads
- decrease in concentration of several cytokines as compared to untreated control samples ([2]; 4 hr): more than a two-fold decrease
- Relative concentration of Eotaxin-2 [2, 4]: 109
- Relative concentration of GCSF [2, 4]: 50
- Relative concentration of ICAM-1 [2, 4]: 44
- Relative concentration of IFN-γ [2, 4]: 103
- Relative concentration of IL-1β [2, 4]: 120
- Relative concentration of IL-4 [2, 4]: 97
- Relative concentration of IL-6sR [2, 4]: 32
- Relative concentration of IL-7 [2, 4]: 93
- Relative concentration of IL-8 [2, 4]: 144
- Relative concentration of IL-10 [2, 4]: 43
- Relative concentration of IL-11 [2, 4]: 49
- Relative concentration of IL-12p40 [2, 4]: 228
- Relative concentration of IL-12p70 [2, 4]: 131
- Relative concentration of MCP-1 [2, 4]: 968
- Relative concentration of PDGF-BB [2, 4]: 159
- Relative concentration of RANTES [2, 4]: 145
- Relative concentration of TIMP-2 [2, 4]: 25
- Relative concentration of sTNF RI [2, 4]: 78
- cytokines induced to higher concentrations: PDGF-BB, IL-1β, IL-4, IL-1, IL-12 and RANTES ([2]; compared to untreated controls, 4 hr): more than two-fold higher
- relative IL-6 concentration [2]: 93
- growth of the tumor enhanced over the control, factor [3]: 1.7

Substance: lipopolysaccharide [LPS, reference compound]
- Relative concentration of IL-2 ([2]; PBMCs in serum, 4 hr): 90
- Relative concentration of IL-3 ([2]; PBMCs in serum, 4 hr): 132
- Relative concentration of IL-13 ([2]; PBMCs in serum, 4 hr): 125
- Relative concentration of MIP-1a ([2]; PBMCs in serum, 4 hr): 237
- Relative concentration of MIP-1d ([2]; PBMCs in serum, 4 hr): 38
- change in the amount of the inflammatory cytokine IL-6 compared to untreated control samples ([2]; PBMCs in serum, 4 hr): significantly elevated
- Relative concentration of Eotaxin [2, 4]: 31
- Relative concentration of Eotaxin-2 [2, 4]: 469
- Relative concentration of GCSF [2, 4]: 120
- Relative concentration of GM-CSF [2, 4]: 106
- Relative concentration of I-309 [2, 4]: 39
- Relative concentration of ICAM-1 [2, 4]: 53
- Relative concentration of IFN-γ [2, 4]: 158
- Relative concentration of IL-1α [2, 4]: 246
- Relative concentration of IL-1β [2, 4]: 47
- Relative concentration of IL-4 [2, 4]: 49
- Relative concentration of IL-6 [2, 4]: 4,375
- Relative concentration of IL-6sR [2, 4]: 52
- Relative concentration of IL-7 [2, 4]: 178
- Relative concentration of IL-8 [2, 4]: 840
- Relative concentration of IL-10 [2, 4]: 218
- Relative concentration of IL-11 [2, 4]: 26
- Relative concentration of IL-12p40 [2, 4]: 46
- Relative concentration of IL-12p70 [2, 4]: 89
- Relative concentration of IL-15 [2, 4]: 104
- Relative concentration of IL-16 [2, 4]: 2
- Relative concentration of IL-17 [2, 4]: 10
- Relative concentration of IP-10 [2, 4]: 268
- Relative concentration of M-CSF [2, 4]: 59
- Relative concentration of MCP-2 [2, 4]: 177
- Relative concentration of MIG [2, 4]: 66
- Relative concentration of MIP-1b [2, 4]: 1,828
- Relative concentration of PDGF-BB [2, 4]: 56
- Relative concentration of RANTES [2, 4]: 114
- Relative concentration of TGF-β1 [2, 4]: 62
- Relative concentration of TIMP-2 [2, 4]: 92
- Relative concentration of TNF-α [2, 4]: 93
- Relative concentration of TNF-β [2, 4]: 95
- Relative concentration of sTNF RI [2, 4]: 58
- Relative concentration of sTNF RII [2, 4]: 26
- relative IL-6 concentration [2]: 5,879
